Measurements as given in ChEMBL document CHEMBL1153036, “Structure-based de novo design and biochemical evaluation of novel Cdc25 phosphatase inhibitors” (Bioorg Med Chem Lett, 2009).

Assays:
[1] = target: T1, M-phase inducer phosphatase 1 (Homo sapiens, UniProt P30304); experiment: Inhibition of N-terminal 6xHis-tagged human Cdc25A (336-523) catalytic domain expressed in Escherichia coli after 20 mins by fluorescent plate reader assay
T1 sequence (P30304 whole entry): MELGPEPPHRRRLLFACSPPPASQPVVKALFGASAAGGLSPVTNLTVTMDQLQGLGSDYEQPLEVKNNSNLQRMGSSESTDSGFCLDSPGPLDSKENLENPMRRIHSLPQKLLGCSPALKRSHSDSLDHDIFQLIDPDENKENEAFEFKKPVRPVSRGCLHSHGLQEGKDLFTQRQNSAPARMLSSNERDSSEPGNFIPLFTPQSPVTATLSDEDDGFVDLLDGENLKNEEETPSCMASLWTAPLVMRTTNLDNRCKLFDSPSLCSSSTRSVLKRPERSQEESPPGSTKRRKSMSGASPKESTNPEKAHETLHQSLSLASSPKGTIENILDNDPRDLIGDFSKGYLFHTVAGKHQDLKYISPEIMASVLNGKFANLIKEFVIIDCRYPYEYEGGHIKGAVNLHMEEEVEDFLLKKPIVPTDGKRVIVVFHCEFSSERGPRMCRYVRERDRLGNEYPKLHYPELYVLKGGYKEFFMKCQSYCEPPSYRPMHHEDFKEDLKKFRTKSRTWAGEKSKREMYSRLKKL

[2] = target: T2, M-phase inducer phosphatase 2 (Homo sapiens, UniProt P30305); experiment: Inhibition of N-terminal 6xHis-tagged (378-566) catalytic domain of Cdc25B expressed in Escherichia coli after 20 mins by fluorescent plate reader assay
T2 sequence (P30305 whole entry): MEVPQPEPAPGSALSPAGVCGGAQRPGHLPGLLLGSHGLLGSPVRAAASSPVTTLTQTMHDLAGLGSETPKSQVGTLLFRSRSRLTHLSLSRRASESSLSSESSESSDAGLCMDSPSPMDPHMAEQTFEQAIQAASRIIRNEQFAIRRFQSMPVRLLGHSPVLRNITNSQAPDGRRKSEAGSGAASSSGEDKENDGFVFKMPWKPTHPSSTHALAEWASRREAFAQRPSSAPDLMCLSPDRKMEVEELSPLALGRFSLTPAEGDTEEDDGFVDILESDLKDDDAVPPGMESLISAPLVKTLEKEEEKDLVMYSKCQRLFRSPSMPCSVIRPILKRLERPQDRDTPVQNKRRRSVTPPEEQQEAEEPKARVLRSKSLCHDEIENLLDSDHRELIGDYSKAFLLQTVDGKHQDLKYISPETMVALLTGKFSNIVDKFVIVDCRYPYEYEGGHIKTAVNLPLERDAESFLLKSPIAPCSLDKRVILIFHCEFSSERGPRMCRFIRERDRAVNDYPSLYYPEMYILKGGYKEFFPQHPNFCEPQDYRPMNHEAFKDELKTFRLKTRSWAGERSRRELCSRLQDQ

Row | SMILES | IC50 [1] [µM] | IC50 [2] [µM]
1 | Oc1nc(Nc2ccc(Cl)cc2Cl)sc1/C=C1\C=Nc2ccccc21 | 12.6 | 2.6
2 | Cc1ccc(/N=C2N=C(O)/C(=C/C=C/c3ccco3)S\2)cc1C | 7.1 | 1.8
3 | O=C1N=C(Nc2ccc(F)cc2)S/C1=C\c1cccs1 | 30.7 | 8.9
4 | O=C1N=C(Nc2cc(Cl)cc(Cl)c2)S/C1=C\C=C\c1ccco1 | 4.1 | 2.3
5 | O=C1N=C(Nc2ccc(Cl)cc2Cl)S/C1=C\C=C\c1ccco1 | 6.7 | 4.5
6 | COc1ccc(-n2c(SCC(=O)c3ccc(O)c(O)c3)nnc2-c2ccc(C)cc2)cc1 | 9.2 | 4.7
7 | O=C(CSc1nnc(-c2ccc(Cl)cc2)n1-c1ccccc1)c1ccc(O)c(O)c1 | 11.5 | 1.6
8 | O=C1N=C(Nc2cccc(Br)c2)S/C1=C\C=C\c1ccco1 | 7.7 | 2.7
9 | Cn1c(SCC(=O)c2ccc([N+](=O)[O-])cc2)nnc1-c1cccc(NC(=O)c2ccccc2F)c1 | 19 | 5.4
10 | CC(=C/c1ccccc1)/C=C1\SC(Nc2cccc(Cl)c2)=NC1=O | 12.8 | 3.3
11 | CC(=C/c1ccccc1)/C=C1\SC(Nc2ccc(C)c(C)c2)=NC1=O | 8.1 | 2.3
12 | O=C1N=C(Nc2cccc(O)c2)S/C1=C\c1cccs1 | 7.8 | 2.8
13 | CC(=C/c1ccccc1)/C=C1\SC(Nc2ccccc2Cl)=NC1=O | 10.3 | 3.9
14 | Cc1ccc(-c2nnc(SCC(=O)c3ccc(O)c(O)c3)n2Cc2ccco2)cc1 | 4.7 | 2.3
15 | CC(=C/c1ccccc1)/C=C1\SC(Nc2cc(Cl)cc(Cl)c2)=NC1=O | 5.1 | 1.2
16 | O=C1N=C(Nc2ccc(Cl)cc2)S/C1=C\c1cccs1 | 11.1 | 4.4
17 | COc1ccc(-c2nnc(SCC(=O)c3ccc(O)c(O)c3)n2-c2ccccc2)cc1 | 6 | 1.7
18 | O=C1N=C(Nc2cc(Cl)cc(Cl)c2)S/C1=C\c1c[nH]c2ccccc12 | 12.7 | 2.3
19 | Cn1c(SCC(=O)c2ccc(-c3ccccc3)cc2)nnc1-c1ccncc1 | 13.1 | 4.2
20 | Cn1c(SCC(=O)c2ccc([N+](=O)[O-])cc2)nnc1-c1cccc(Cl)c1 | 11.1 | 4.4
21 | Cc1ccc(-c2nnc(SCC(=O)c3ccc(O)c(O)c3)n2-c2ccccc2)cc1 | 7.1 | 2.5
22 | Cn1cccc1/C=C1\SC(Nc2ccc(F)cc2)=NC1=O | 14.3 | 3.7
23 | Cn1c(SCC(=O)c2ccc(-c3ccccc3)cc2)nnc1-c1ccco1 | 13 | 2
24 | O=C1N=C(Nc2ccccc2Cl)S/C1=C\C=C\c1ccco1 | 10.1 | 2.1
25 | CCn1c(SCC(=O)c2ccc(Cl)cc2)nnc1-c1cccnc1 | 17.2 | 6
26 | C=Cn1c(SCC(=O)c2ccc(Cl)cc2)nnc1-c1ccco1 | 14.5 | 5.2
27 | Cn1cccc1/C=C1\SC(Nc2ccc(Cl)cc2)=NC1=O | 15.4 | 3.1
28 | O=C1N=C(Nc2cccc(Cl)c2)S/C1=C\C=C\c1ccco1 | 9.1 | 3.2
29 | CC(=C/c1ccccc1)/C=C1\SC(Nc2ccc(Br)cc2)=NC1=O | 17.3 | 5.1
30 | O=C1N=C(Nc2cccc(Cl)c2Cl)S/C1=C\C=C\c1ccco1 | 6.2 | 2.1
